Source: patent US7074743B1, “Herbicidal composition comprising 4-iodo-2-[3-(4-methoxy-6-methyl-1,3,5-triazin-2-yl)ureidosulfonyl]benzoic esters” (priority 1995, dated 2006)

Assays:
Assay type in all cases: in vivo
Fallopia convolvulus = test: Herbicidal action on FALCO, visual scoring vs untreated, post-emergence 2-4 leaf stage
Method: (§1) The examples given below were performed in the greenhouse and, in some cases, in field trials.
(§2) The herbicides, or combinations, were applied in cereals after the weeds had emerged naturally using plot sprayers. After application, the results, such as damage to the crop plants and effect on broad-leaved weeds/grass weeds were assessed by means of visual scoring. The herbicidal action was assessed qualitatively and quantitatively by comparing untreated and treated plots on the basis of the effect on plant growth and the development of chloroses and necroses down to the complete destruction of the weeds (0–100%). The application was effected when the crop plants and weeds were in the 2–4 leaf stage. The test was evaluated approximately 4 weeks after application.
(§3) In the greenhouse experiments, the crop plants and broadleaved weeds/grass weeds were grown in No. 13 pots and treated in the 2–4 leaf stage. The pots were subsequently placed in the greenhouse under good growth conditions (temperature, atmospheric humidity, water supply).
(§4) The assessments were carried out similarly to those in the field trials, i.e. visual scoring of the treated plants in comparison with untreated control variants. These assessments were carried out 3 weeks after applying the test preparations and their combinations. The experiments had been set up in two replications.
(§5) To assess the combination effects, the activities of the individual components were added and compared with the activity of the mixtures in equal doses. It was frequently observed that the efficacies of the combinations exceeded the total of the individual activities.
(§6) In cases with less clear effects, the expected value was calculated using Colby's formula and compared with the empirically determined result. The calculated efficacy of a combination which is expected in theory is determined is using S.R. Colby's formula: “Calculation of synergistic and antagonistic responses of herbicide combinations”, Weeds 15 (1967), pages 20 to 22.
(§7) [formula] where • X=% damage caused by herbicide A at a rate of ×kg a.i./ha; • Y=% damage caused by herbicide B at a rate of y kg a.i./ha; • Z=% damage caused by a further herbicide C at a rate of z kg a.i./ha; • E=expected value, i.e. expected damage caused by herbicides A+B (or A+B+C) at x+y (or x+y+z) kg a.i./ha.
(§8) Synergistic effects were assumed to be when the empirical value exceeded the expected value. In the case of combinations with individual components with the same active substances, comparisons via the total formula were also possible.

Apera spica venti = test: Herbicidal action on APESV, visual scoring vs untreated, post-emergence 2-4 leaf stage; conditions: Table 1
Method: as §1, §2, §3, §4, §5, §6, §7, §8

Centaurea cyanus = test: Herbicidal action on CENCY, visual scoring vs untreated, post-emergence 2-4 leaf stage
Method: as §1, §2, §3, §4, §5, §6, §7, §8

Secale cereale = test: Damage to crop plant SECCW, visual scoring vs untreated
Method: as §1, §2, §3, §4

Gallium aparine = test: Herbicidal action on GALAP, visual scoring vs untreated, post-emergence 2-4 leaf stage
Method: as §1, §2, §3, §4, §5, §6, §7, §8

Ambrosia elatior = test: Herbicidal action on AMBEL, visual scoring vs untreated, post-emergence 2-4 leaf stage; conditions: Table 12; 2.5 g of ai/ha
Method: as §1, §2
(§9) In the greenhouse experiments, the crop plants and broadleaved weeds/grass weeds were grown in No. 13 pots and treated in the 2–4 leaf stage. […]
(§10) In cases with less clear effects, the expected value was calculated using Colby's formula and compared with the empirically determined result. The calculated efficacy of a combination which is expected in theory is determined is using S.R. Colby's formula: “Calculation of synergistic and antagonistic responses of herbicide combinations”, Weeds 15 (1967), pages 20 to 22. […]

Zea mays = test: Damage to crop plant ZEAMA, visual scoring vs untreated
Method: as §1, §2, §3, §4

Phalaris canariensis = test: Herbicidal action on PHACA, visual scoring vs untreated, post-emergence 2-4 leaf stage (greenhouse / field trials)
Method: as §1, §2, §3, §4, §5, §6, §7, §8

Echinochloa crus galli = test: Herbicidal action on ECHCR, visual scoring vs untreated, post-emergence 2-4 leaf stage
Method: as §1, §2, §3, §4, §5, §6, §7, §8

Lolium multiflorum = test: Herbicidal action on LOLMU, visual scoring vs untreated, post-emergence 2-4 leaf stage
Method: as §1, §2, §3, §4, §5, §6, §7, §8

Avena fatua = test: Herbicidal action on AVEFA, visual scoring vs untreated, post-emergence 2-4 leaf stage; conditions: Table 11
Method: as §1, §2, §3, §4, §5, §6, §7, §8

Viola arvensis = test: Herbicidal action on VIOAR, visual scoring vs untreated, post-emergence 2-4 leaf stage; conditions: Table 7
Method: as §1, §2, §3, §4, §5, §6, §7, §8

Mercurialis annua = test: Herbicidal action on MERAN, visual scoring vs untreated, post-emergence 2-4 leaf stage; conditions: Table 11
Method: as §1, §2, §3, §4, §5, §6, §7, §8

Abuthilon theophrastis = test: Herbicidal action on ABUTHE, visual scoring vs untreated, post-emergence 2-4 leaf stage; conditions: Table 12; 2.5 g of ai/ha
Method: as §1, §2, §9, §10

COC(=O)c1ccc(I)cc1S(=O)(=O)NC(=O)Nc1nc(C)nc(OC)n1.[Na] [A), sodium salt of methyl 4-iodo-2-[3-(4-methoxy-6-methyl-1,3,5-triazin-2-yl)ureidosulfonyl]benzoate]
78%: CENCY % control (Centaurea cyanus; Table 9, 20 g of a.i./ha)
98%: FALCO % control (Fallopia convolvulus; Table 5, 40 g of a.i./ha) | FALCO % control (Fallopia convolvulus; Table 9, 40 g of a.i./ha) | APESV % control (Apera spica venti; 20 g of a.i./ha) | GALAP % control (Gallium aparine; Table 11, 10 g of a.i./ha) | VIOAR % control (Viola arvensis; 20 g of a.i./ha)
73%: FALCO % control (Fallopia convolvulus; Table 5, 2.5 g of a.i./ha) | FALCO % control (Fallopia convolvulus; Table 9, 2.5 g of a.i./ha) | ECHCR % control (Echinochloa crus galli; Table 8, 20 g of a.i./ha)
85%: FALCO % control (Fallopia convolvulus; Table 5, 5 g of a.i./ha) | FALCO % control (Fallopia convolvulus; Table 9, 5 g of a.i./ha) | APESV % control (Apera spica venti; 3 g of a.i./ha)
95%: VIOAR % control (Viola arvensis; 10 g of a.i./ha)
97%: FALCO % control (Fallopia convolvulus; Table 5, 20 g of a.i./ha) | FALCO % control (Fallopia convolvulus; Table 9, 20 g of a.i./ha) | APESV % control (Apera spica venti; 10 g of a.i./ha)
5%: SECCW % damage (Secale cereale; Table 6, 15 g of a.i./ha) | SECCW % damage (Secale cereale; Table 10, 15 g of a.i./ha) | LOLMU % control (Lolium multiflorum; Table 2, 5 g of a.i./ha) | LOLMU % control (Lolium multiflorum; Table 3, 5 g of a.i./ha)
75%: GALAP % control (Gallium aparine; Table 11, 5 g of a.i./ha) | ECHCR % control (Echinochloa crus galli; Table 4, 20 g of a.i./ha) | LOLMU % control (Lolium multiflorum; Table 5, 5 g of a.i./ha) | VIOAR % control (Viola arvensis; 5 g of a.i./ha)
70%: MERAN % control (Mercurialis annua; 5 g of a.i./ha)
99%: FALCO % control (Fallopia convolvulus; Table 5, 80 g of a.i./ha) | FALCO % control (Fallopia convolvulus; Table 5, 160 g of a.i./ha) | GALAP % control (Gallium aparine; Table 7, 20 g of a.i./ha)
60%: CENCY % control (Centaurea cyanus; Table 6, 15 g of a.i./ha) | CENCY % control (Centaurea cyanus; Table 10, 15 g of a.i./ha) | GALAP % control (Gallium aparine; Table 7, 10 g of a.i./ha) | AVEFA % control (Avena fatua; 5 g of a.i./ha)
94%: MERAN % control (Mercurialis annua; 10 g of a.i./ha)
68%: LOLMU % control (Lolium multiflorum; Table 5, 2.5 g of a.i./ha)
93%: APESV % control (Apera spica venti; 5 g of a.i./ha)
53%: PHACA % control (Phalaris canariensis; Table 1, 20 g of a.i./ha) | PHACA % control (Phalaris canariensis; Table 2, 20 g of a.i./ha) | PHACA % control (Phalaris canariensis; Table 3, 20 g of a.i./ha)
15%: PHACA % control (Phalaris canariensis; Table 1, 5 g of a.i./ha) | PHACA % control (Phalaris canariensis; Table 2, 5 g of a.i./ha) | PHACA % control (Phalaris canariensis; Table 3, 5 g of a.i./ha)
88%: FALCO % control (Fallopia convolvulus; Table 5, 10 g of a.i./ha) | FALCO % control (Fallopia convolvulus; Table 9, 10 g of a.i./ha) | AMBEL % control (Ambrosia elatior) | ECHCR % control (Echinochloa crus galli; Table 4, 80 g of a.i./ha) | ECHCR % control (Echinochloa crus galli; Table 8, 80 g of a.i./ha)
10%: LOLMU % control (Lolium multiflorum; Table 2, 10 g of a.i./ha) | LOLMU % control (Lolium multiflorum; Table 3, 10 g of a.i./ha) | ABUTHE % control (Abuthilon theophrastis)
48%: LOLMU % control (Lolium multiflorum; Table 2, 20 g of a.i./ha) | LOLMU % control (Lolium multiflorum; Table 3, 20 g of a.i./ha)
30%: CENCY % control (Centaurea cyanus; Table 6, 10 g of a.i./ha) | CENCY % control (Centaurea cyanus; Table 9, 2.5 g of a.i./ha) | CENCY % control (Centaurea cyanus; Table 10, 10 g of a.i./ha)
43%: CENCY % control (Centaurea cyanus; Table 9, 5 g of a.i./ha)
58%: CENCY % control (Centaurea cyanus; Table 9, 10 g of a.i./ha) | GALAP % control (Gallium aparine; Table 7, 5 g of a.i./ha) | VIOAR % control (Viola arvensis; 2.5 g of a.i./ha)
65%: ECHCR % control (Echinochloa crus galli; Table 4, 10 g of a.i./ha) | ECHCR % control (Echinochloa crus galli; Table 8, 10 g of a.i./ha)
35%: GALAP % control (Gallium aparine; Table 7, 2.5 g of a.i./ha) | PHACA % control (Phalaris canariensis; Table 1, 10 g of a.i./ha) | PHACA % control (Phalaris canariensis; Table 2, 10 g of a.i./ha) | PHACA % control (Phalaris canariensis; Table 3, 10 g of a.i./ha)
0%: CENCY % control (Centaurea cyanus; Table 6, 5 g of a.i./ha) | CENCY % control (Centaurea cyanus; Table 10, 5 g of a.i./ha) | SECCW % damage (Secale cereale; Table 6, 5 g of a.i./ha) | SECCW % damage (Secale cereale; Table 6, 10 g of a.i./ha) | SECCW % damage (Secale cereale; Table 10, 5 g of a.i./ha) | SECCW % damage (Secale cereale; Table 10, 10 g of a.i./ha) | ZEAMA % damage (Zea mays; Table 4, 10 g of a.i./ha) | ZEAMA % damage (Zea mays; Table 4, 20 g of a.i./ha) | ZEAMA % damage (Zea mays; Table 4, 40 g of a.i./ha) | ZEAMA % damage (Zea mays; Table 4, 80 g of a.i./ha) | ZEAMA % damage (Zea mays; Table 8, 10 g of a.i./ha) | ZEAMA % damage (Zea mays; Table 8, 20 g of a.i./ha) | ZEAMA % damage (Zea mays; Table 8, 40 g of a.i./ha) | ZEAMA % damage (Zea mays; Table 8, 80 g of a.i./ha) | PHACA % control (Phalaris canariensis; Table 1, 3 g of a.i./ha) | PHACA % control (Phalaris canariensis; Table 2, 3 g of a.i./ha) | PHACA % control (Phalaris canariensis; Table 3, 3 g of a.i./ha) | LOLMU % control (Lolium multiflorum; Table 2, 3 g of a.i./ha) | LOLMU % control (Lolium multiflorum; Table 3, 3 g of a.i./ha)
83%: LOLMU % control (Lolium multiflorum; Table 5, 10 g of a.i./ha)
3%: ZEAMA % damage (Zea mays; Table 12, 2.5 g of ai/ha)
80%: ECHCR % control (Echinochloa crus galli; Table 4, 40 g of a.i./ha) | ECHCR % control (Echinochloa crus galli; Table 8, 40 g of a.i./ha) | AVEFA % control (Avena fatua; 10 g of a.i./ha)
